According to PMC4140284, “Human UTY(KDM6C) Is a Male-specific N^ϵ-Methyl Lysyl Demethylase” (The Journal of Biological Chemistry, 2014):

How the values were obtained:
[1] = test system: partially phosphorylated UTY(KDM6C); experiment: 2OG turnover by 1H NMR, partially phosphorylated UTY(KDM6C); format: biochemical, human; conditions: 10 μM, in 28 min
[2] = test system: UTY(KDM6C) dephosphorylated in vitro using λ-phosphatase; experiment: 2OG turnover by 1H NMR, dephosphorylated UTY(KDM6C); format: biochemical, human; conditions: UTY(KDM6C) dephosphorylated with λ-phosphatase, 10 μM, in 28 min
UTY(KDM6C) [3] = experiment: Inhibition of H3K27Me3 peptide demethylation, UTY(KDM6C); format: biochemical, human; conditions: 10 μM inhibitor, 15 min preincubation, 20 min at 37 °C
Protocol: (§1) Reaction components were premixed in two batches ((i) enzyme, Fe(II), and ascorbate and (ii) 2OG and peptide), and reactions were initiated by mixing the enzyme and substrate mix. Reactions were incubated at 37 °C for the indicated times before being quenched with methanol in a 1:1 ratio.
(§2) For inhibition assays, the same enzyme/Fe(II)/ascorbate mixture was preincubated with 10 μM inhibitor for 15 min before the reaction was initiated by the addition of the peptide substrate solution. Reactions were quenched with 1:1 methanol after 20 min at 37 °C.
(§3) Product formation was assessed by MALDI-TOF MS. One microliter of quenched reaction was mixed with 1 μl of α-cyano-4-hydroxycinnamic acid and spotted onto a MALDI-TOF plate for analysis using a MALDI micro-MX mass spectrometer (Waters) in reflectron positive ion mode with pulse voltage 1250 V, detector voltage 2750 V, and mass suppression 1000 Da. Data were analyzed using MassLynx version 4.0. For inhibitor assays, inhibition levels were measured relative to an inhibitor-free reaction.

KDM6A [4] = biological target: T1, KDM6A (Homo sapiens, UniProt O15550); experiment: Inhibition of H3K27Me3 peptide demethylation, KDM6A; format: biochemical; conditions: 10 μM inhibitor, 15 min preincubation, 20 min at 37 °C
T1 construct: KDM6B and KDM6A plasmids were used as described previously; made in house; host or cells: Escherichia coli BL21 (DE3)
Protocol: as §1, §2, §3

[5] = test system: H3K27Me3 levels in HeLa cells; experiment: Immunofluorescence of global H3K27Me3 levels on overexpression in HeLa cells; format: cell-based; conditions: exogenous overexpression in HeLa cells
Protocol: For cell-based experiments, HEK 293T and HeLa cells were cultured at 37 °C and 5% CO2 in DMEM (Lonza) supplemented with 10% fetal bovine serum (FBS) (Invitrogen) and 1% Glutamax (Invitrogen). For microscopy, HeLa cells were seeded into 96-well clear bottom optical grade plates (BD Biosciences) at 8000 cells/well and allowed to settle overnight. Transfections were carried out the next day. For each well, 0.1 μg of plasmid and 0.25 μl of Lipofectamine 2000 (Invitrogen) were each incubated in 25 μl of Opti-MEM (Invitrogen) for 5 min at room temperature. The two solutions were then mixed gently but thoroughly and incubated for 20 min at room temperature. The mixture was added to the cells in 50 μl of fresh medium. Four hours later, the medium was changed, and the cells were incubated for a further 24 h before fixation. Cells were fixed in 4% (v/v) aqueous formaldehyde for 20 min, permeabilized in 0.5% Triton X-100 in phosphate-buffered saline (PBS) for 8 min, and blocked in 3% (w/v) FBS in PBS for 1 h with a PBS wash between each step. The primary antibodies were then added to the cells in blocking solution. […] Luciferase activity was measured using the Promega Dual-Luciferase Reporter Assay System on a Promega GloMax 20/20 luminometer. Readings were normalized to a Renilla luciferase control that was co-transfected with all samples. […]

KDM6B = biological target: T2, KDM6B (Homo sapiens, UniProt O15054); experiment: Demethylation of histone peptide by MALDI-TOF MS, KDM6B; format: biochemical; conditions: KDM6B positive control
T2 construct: KDM6B and KDM6A plasmids were used as described previously; made in house; host or cells: Escherichia coli BL21 (DE3)
Protocol: as §1, §3
(§4) With catalytically active UTY(KDM6C) in hand, we then investigated whether a longer UTY(KDM6C) construct (residues 818–1347, herein UTY(KDM6C)) can act as a KDM. UTY(KDM6C) was incubated for 1 h at 37 °C with histone peptide fragments corresponding to known mono-, di-, and tri- lysine methylation sites of histone 3 (at Lys^4, Lys^9, Lys^27, and Lys^36) and histone 4 (at Lys^20) (Table 3). Demethylation was assessed by a mass spectrometric (MS) assay with mass shifts of −14 and −28 Da, corresponding to mono- and didemethylation, respectively. […]

KDM6A [6] = biological target: T1, KDM6A; experiment: Demethylation of histone peptide by MALDI-TOF MS, KDM6A; format: biochemical; conditions: KDM6A positive control
Protocol: as §1, §3, §4

UTY(KDM6C) [7] = experiment: Demethylation of histone peptides by MALDI-TOF MS, UTY(KDM6C); format: biochemical, human; conditions: UTY(KDM6C) 818–1347, 1 h at 37 °C
Protocol: as §1, §3
With catalytically active UTY(KDM6C) in hand, we then investigated whether a longer UTY(KDM6C) construct (residues 818–1347, herein UTY(KDM6C)) can act as a KDM. UTY(KDM6C) was incubated for 1 h at 37 °C with histone peptide fragments corresponding to known mono-, di-, and tri- lysine methylation sites of histone 3 (at Lys^4, Lys^9, Lys^27, and Lys^36) and histone 4 (at Lys^20) (Table 3). Demethylation was assessed by a mass spectrometric (MS) assay with mass shifts of −14 and −28 Da, corresponding to mono- and didemethylation, respectively. […] The predominant product was H3K27Me2, resulting from a single demethylation; a smaller amount of H3K27Me1 was observed as a result of didemethylation (Fig. 3C). Demethylation was dependent on the presence of Fe(II)/2OG.

KDM6 = experiment: Demethylation of histone peptide by 1H NMR, KDM6; format: biochemical, human; conditions: KDM6 catalyzed
Excerpt: The total echo time was 48 ms.

T1 sequence (O15550 whole entry): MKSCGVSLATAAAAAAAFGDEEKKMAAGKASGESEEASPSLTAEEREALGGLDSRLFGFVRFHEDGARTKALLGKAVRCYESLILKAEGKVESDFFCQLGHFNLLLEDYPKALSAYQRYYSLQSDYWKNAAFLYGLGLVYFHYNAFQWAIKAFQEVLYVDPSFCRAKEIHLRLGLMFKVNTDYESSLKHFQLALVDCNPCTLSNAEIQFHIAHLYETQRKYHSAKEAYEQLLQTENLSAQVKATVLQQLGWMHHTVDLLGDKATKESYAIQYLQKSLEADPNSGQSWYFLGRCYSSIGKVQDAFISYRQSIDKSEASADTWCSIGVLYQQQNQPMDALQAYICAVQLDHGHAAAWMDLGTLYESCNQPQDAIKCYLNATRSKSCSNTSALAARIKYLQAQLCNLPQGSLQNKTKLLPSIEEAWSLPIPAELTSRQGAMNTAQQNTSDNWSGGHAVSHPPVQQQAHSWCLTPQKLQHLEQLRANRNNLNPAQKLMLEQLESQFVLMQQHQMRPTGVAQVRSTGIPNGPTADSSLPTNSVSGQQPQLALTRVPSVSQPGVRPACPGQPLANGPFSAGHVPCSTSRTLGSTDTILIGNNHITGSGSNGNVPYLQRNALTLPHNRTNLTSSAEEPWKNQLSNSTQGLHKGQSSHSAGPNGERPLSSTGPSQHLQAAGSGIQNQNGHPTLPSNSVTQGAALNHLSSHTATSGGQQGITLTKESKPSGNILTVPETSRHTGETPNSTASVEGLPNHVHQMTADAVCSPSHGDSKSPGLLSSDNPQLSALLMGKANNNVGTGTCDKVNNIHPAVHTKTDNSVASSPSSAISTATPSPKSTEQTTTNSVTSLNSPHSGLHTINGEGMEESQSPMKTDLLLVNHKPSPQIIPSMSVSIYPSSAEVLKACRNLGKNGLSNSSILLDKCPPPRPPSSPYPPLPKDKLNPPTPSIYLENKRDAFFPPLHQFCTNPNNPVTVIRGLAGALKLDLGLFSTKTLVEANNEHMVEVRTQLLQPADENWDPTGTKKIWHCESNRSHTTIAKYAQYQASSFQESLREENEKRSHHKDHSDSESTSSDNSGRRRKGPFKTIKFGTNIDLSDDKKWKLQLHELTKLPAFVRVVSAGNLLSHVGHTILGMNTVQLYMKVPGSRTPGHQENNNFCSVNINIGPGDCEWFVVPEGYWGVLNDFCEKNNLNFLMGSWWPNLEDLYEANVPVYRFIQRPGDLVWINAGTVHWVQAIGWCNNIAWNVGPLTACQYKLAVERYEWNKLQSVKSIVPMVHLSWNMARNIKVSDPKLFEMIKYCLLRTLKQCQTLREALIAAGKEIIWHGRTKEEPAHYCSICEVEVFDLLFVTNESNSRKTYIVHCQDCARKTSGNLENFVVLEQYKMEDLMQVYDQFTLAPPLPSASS
T2 sequence (O15054 whole entry): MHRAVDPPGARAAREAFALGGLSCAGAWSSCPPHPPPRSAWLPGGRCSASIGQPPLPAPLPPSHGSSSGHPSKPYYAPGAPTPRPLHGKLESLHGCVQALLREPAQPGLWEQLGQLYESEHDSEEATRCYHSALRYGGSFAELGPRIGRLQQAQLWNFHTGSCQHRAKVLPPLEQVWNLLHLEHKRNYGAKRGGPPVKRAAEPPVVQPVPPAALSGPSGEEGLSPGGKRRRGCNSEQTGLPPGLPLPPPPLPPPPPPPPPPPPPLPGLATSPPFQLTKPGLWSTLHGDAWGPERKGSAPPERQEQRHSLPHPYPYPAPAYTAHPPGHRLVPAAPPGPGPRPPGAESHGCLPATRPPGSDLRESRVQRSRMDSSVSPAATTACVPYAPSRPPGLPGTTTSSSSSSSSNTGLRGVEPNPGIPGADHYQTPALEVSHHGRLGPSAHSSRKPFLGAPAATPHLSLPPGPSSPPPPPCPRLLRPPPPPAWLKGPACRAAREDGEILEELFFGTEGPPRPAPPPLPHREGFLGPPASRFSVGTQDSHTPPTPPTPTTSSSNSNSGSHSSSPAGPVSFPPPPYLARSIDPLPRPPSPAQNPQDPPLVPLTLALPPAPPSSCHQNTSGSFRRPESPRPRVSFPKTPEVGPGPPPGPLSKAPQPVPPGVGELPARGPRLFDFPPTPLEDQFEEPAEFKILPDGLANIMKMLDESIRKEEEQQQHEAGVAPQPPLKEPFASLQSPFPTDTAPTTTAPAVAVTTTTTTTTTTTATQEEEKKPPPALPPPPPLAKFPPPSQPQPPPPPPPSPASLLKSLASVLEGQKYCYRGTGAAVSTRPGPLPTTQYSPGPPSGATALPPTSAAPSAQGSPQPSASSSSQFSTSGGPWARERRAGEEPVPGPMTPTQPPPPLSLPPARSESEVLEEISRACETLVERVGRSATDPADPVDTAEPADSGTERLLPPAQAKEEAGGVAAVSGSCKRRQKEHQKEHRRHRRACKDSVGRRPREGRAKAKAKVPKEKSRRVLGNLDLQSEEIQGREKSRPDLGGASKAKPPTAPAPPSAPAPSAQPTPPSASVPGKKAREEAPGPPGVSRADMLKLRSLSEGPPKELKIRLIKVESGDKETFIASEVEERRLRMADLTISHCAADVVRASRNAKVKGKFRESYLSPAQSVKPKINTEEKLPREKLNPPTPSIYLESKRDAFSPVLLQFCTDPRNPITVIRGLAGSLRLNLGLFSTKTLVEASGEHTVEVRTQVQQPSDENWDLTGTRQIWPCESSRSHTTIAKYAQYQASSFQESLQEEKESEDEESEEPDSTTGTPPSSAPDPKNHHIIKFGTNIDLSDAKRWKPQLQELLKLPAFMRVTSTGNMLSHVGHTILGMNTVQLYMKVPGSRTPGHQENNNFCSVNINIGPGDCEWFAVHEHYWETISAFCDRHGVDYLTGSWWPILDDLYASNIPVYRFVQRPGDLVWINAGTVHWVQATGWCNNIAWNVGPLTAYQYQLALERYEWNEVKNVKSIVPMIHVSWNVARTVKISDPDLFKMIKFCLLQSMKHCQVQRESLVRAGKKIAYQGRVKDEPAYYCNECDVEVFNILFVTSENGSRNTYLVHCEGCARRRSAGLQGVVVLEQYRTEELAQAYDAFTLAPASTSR

O=C(O)CCC(=O)C(=O)O [2OG, 2-oxoglutarate]
succinate produced [1]: 7 ± 0.5 nmol
succinate produced [2]: 7 ± 0.5 nmol

O=C(O)CCNc1cc(N2CCc3ccccc3CC2)nc(-c2ccccn2)n1 [GSK-J1]
potency rank among nine inhibitors (UTY(KDM6C) [3]): most potent inhibitor
inhibition of demethylation (UTY(KDM6C) [3]; H3K27Me3 peptide, MALDI MS): inhibition of UTY(KDM6C) activity by GSK-J1 was observed
potency rank among nine inhibitors (KDM6A [4]): most potent inhibitor

FL WT KDM6B: full-length wild type KDM6B, positive control
change in global H3K27Me3 level [5]: a decrease was observed

GGKAPRKQLATKAARKMe3SAPATGG [23-residue histone peptide containing H3K27Me3 (histone 3, 12–34)]
demethylation (KDM6B): demethylation was observed
demethylation (KDM6A [6]): demethylation was observed
demethylation (UTY(KDM6C) [7]): catalyzes the demethylation
minor demethylation product (UTY(KDM6C) [7]; didemethylation, smaller amount): H3K27Me1
demethylation (UTY(KDM6C) [7]; listed as H3K27Me3 peptide (histone 3, 12–34)): demethylation was observed
predominant demethylation product (UTY(KDM6C) [7]; single demethylation): H3K27Me2

GGKAPRKQLATKAARKMe3SAPATGGV [24-residue histone peptide containing H3K27Me3]
demethylation (KDM6): KDM6 catalyzed demethylation
